Laboratory results taken from patent US20230181521A1, “IS[…] ANALOGS OF 5,6-METHYLENEDIOXY-2-AMINOINDANE (MDAI)” (Terran Biosciences, Inc., priority 2021, published 2023).
Structures can show the parent of a compound that is named as a salt.

Key:
[1] = Metabolic stability in human liver microsomes; type: in vitro ADME; settings: for half-life at 0.25 μM: pH 7.4; for microsomal CLint at 0.25 μM: pH 7.4, read-out: CLint (μL/min/mg protein); for in vitro clearance compared with MDAI HCl salt (reference compound): tested as racemic mixtures
Method: Microsomal Assay: Human liver microsomes (20 mg/mL) were obtained. β-nicotinamide adenine dinucleotide phosphate, reduced form (NADPH), magnesium chloride (MgCl2), and dimethyl sulfoxide (DMSO) are purchased from Sigma-Aldrich.
Determination of Metabolic Stability: 7.5 mM stock solutions of test compounds of the above structural formula (e.g., of an embodiment or aspect of embodiment thereof described herein), or pharmaceutically acceptable salt thereof, are prepared in DMSO. […] The diluted microsomes are added to wells of a 96-well deep-well polypropylene plate in triplicate. […] Reactions are initiated by addition of pre-warmed NADPH solution. The final reaction volume is 0.5 mL and contains 4.0 mg/mL human liver microsomes, 0.25 μM test compound, and 2 mM NADPH in 0.1 M potassium phosphate buffer, pH 7.4, and 3 mM MgCl2. The reaction mixtures are incubated at 37° C., and […] aliquots are removed at 0, 5, 10, 20, and 30 minutes and added to shallow-well 96-well plates which contain […] of ice-cold ACN (acetonitrile) with internal standard to stop the reactions. The plates are stored at 4° C. for 20 minutes after which […] of water is added to the wells of the plate before centrifugation to pellet precipitated proteins. Supernatants are transferred to another 96-well plate and analyzed for amounts of parent remaining by LC-MS/MS using an Applied Bio-systems API 4000 mass spectrometer. The same procedure is followed for the non-labeled, such as the non-deuterated counterpart of the compound and the positive control, 7-ethoxycoumarin (1 μM). Testing is done in triplicate.
Data analysis: The in vitro T1/2s for test compounds are calculated from the slopes of the linear regression of % parent remaining (In) vs incubation time relationship.
k=−[slope of linear regression of % parent remaining (In) vs incubation time] The apparent intrinsic clearance is calculated using the following equation: […]
Data analysis is performed using Microsoft Excel Software.

Male Sprague-Dawley rats = assay: Rat elevated zero maze test (model of anxiety); type: in vivo
Excerpt: The rat zero-maze model is a refined alternative to the plus-maze, the most widely used animal model of anxiety, and consists of an elevated annular platform, divided equally into four quadrants. Two opposite quadrants are enclosed by Perspex walls on both the inner and the outer edges of the platform, while the remaining two opposite quadrants are open being enclosed only by a Perspex “lip”. Animals will show a preference for the closed areas, and avoidance of the open sections is assumed to stem from a rodent's natural aversion to open, exposed spaces. The primary index of anxiety, which reflect changes in open arm preference, is the percentage of time spent on the open areas. A reduction in the amount of activity on the open areas is considered to reflect an increase in anxiety while an increase in time in the open arms is indicative of an anxiolytic effect. Other, ethologically-based behaviors are also assessed as indices of anxiety including total open arm entries, total line crossings, and the frequency of exploratory head dipping over the edge of the platform (HDIPS). • Shepherd, J K; Grewel, SS; Fletcher, A; Bill, DJ; Dourish, C T (1994) Behavioural and pharmacological validation of the elevated “zero-maze” as an animal model of anxiety. Psychopharmacol., 116:56-64.
Male Sprague-Dawley 200-250 g (Envigo UK) rats were used. Animals were group-housed (5 per cage; cage size: 40×40×20 cm) in a temperature-controlled environment (22±2° C.), under a 12 h light-dark cycle (lights on: 08:00 hours) for one week prior to testing. Food and water were freely available. Number of animals per group=5. Animals were moved into the experimental room 16-24 hours before testing.
The elevated 0-maze comprises a black Perspex annular platform (105 cm diameter, 10 cm width) elevated to 65 cm above ground level, divided equally into four quadrants. Two opposite quadrants are enclosed by clear red Perspex walls (27 cm high) on both the inner and outer edges of the platform, while the remaining two opposite quadrants are surrounded only by a Perspex “lip” (1 cm high) which serves as a tactile guide to animals on these open areas.
Subjects were weighed and tail marked before being injected. After a specified pre-treatment time, subjects were placed in a closed quadrant and a 5-min test period were recorded on videotape for subsequent analysis. The maze was cleaned with 5% methanol/water solution and dried thoroughly between test sessions. Behavioural measures comprise percentage time spent on the open areas (% TO). Animals are scored as being in the open area when all four paws were in an open quadrant and in the closed area only when all four paws have passed over the open-closed divide. All testing were carried out between 9.00 and 16.00 hours.
IP: MDAI (HCl salt with 82.94% free base content) was formulated in Vehicle 1 (Saline) for injection to concentrations of […] to provide doses of 0.15, 0.31, 0.625, 1.25 and 2.5 mg/kg when administered ip in 5 mL/kg dosing volumes.
Chlordiazepoxide was formulated in Vehicle 1 (saline) to a concentration of 1.2 mg/mL to provide a dose of 6 mg/kg when administered ip in 5 mL/kg dosing volumes.
35 male Sprague-Dawley rats in treatment groups of 2 or 5, was intraperitoneally dosed with either Vehicle 1 (saline) or MDAI at 1 of 5 dose levels (0.15, 0.31, 0.625, 1.25 and 2.5) or chlordiazepoxide (6 mg/kg) in 5 mL/kg injection volumes. Thirty min later at T=0, rats were individually placed in a closed arm of the zero-maze and behavior assessed by a “blind” observer using remote video monitoring over the subsequent 5 min. The animal was then removed and the maze carefully wiped with 5% methanol/water solution before the next test was begun. Three rats from the vehicle group, 3 rats from the 2.5 mg/kg MDAI group, and 3 rats from the CDP group were tested on a separate day from the other rats.
Data was analysed with Statistica software (Statsoft USA version 10.0). […]

[2] = Progress in Neuro-Psychopharmacology & Biological Psychiatry 69, 2016, 49-59; cited from earlier work
[3] = Double-blind, randomized, placebo-controlled clinical trial of MDAI-assisted psychotherapy in PTSD; type: in vivo
Method: A multicenter, randomized, double-blind, placebo-controlled trial is conducted to assess the efficacy and safety of MDAI-assisted psychotherapy versus psychotherapy with placebo control in participants diagnosed with at least moderate post-traumatic stress disorder (PTSD).
This multicenter, randomized, double-blind, placebo-controlled trial is conducted at various sites in the United States with IRB approval from each study site. A flexible dose of MDAI hydrochloride salt or placebo, followed by a supplemental half-dose unless contraindicated by patient's previous response or medical history, is also administered during the Treatment Period with psychotherapy in at least 3 blinded monthly Experimental Sessions. The Supplemental Dose extends the duration of drug effects on the participants during an Experimental Session. An optional Risk Evaluation and Mitigation Strategy (REMS) Protocol may be implemented for MDAI and placebo-groups. The Treatment Period lasts for approximately 12 weeks. During the Treatment Period, each Experimental Session is followed by three Intervening Sessions of non-drug psychotherapy. Each Experimental Session involves an overnight stay. The Primary Outcome measure, the change in Clinician Administered PTSD Scale for DSM-5 (CAPS-5), is determined by a blinded Independent Rater (IR) pool multiple times throughout the study. The study consists of separate periods for each participant. Initially, prospective participants undergo a Screening Period involving an initial eligibility assessment, a medical history intake, informed consent, and enrollment of eligible participants. Next, a Preparation Period is undertaken for enrolled participants involving medication tapering and clinical baseline assessments to confirm each participant meets enrollment criteria. As part of the Preparation Period, a detailed assessment of co-morbidities to PTSD is recorded. Participants may remain on prescribed courses of selective serotonin reuptake inhibitor (SSRI) or serotonin and norepinephrine reuptake inhibitor (SNRI) treatment. Dosages and/or frequency of administration of a prescribed SSRI or SNRI may be adjusted to fit within study parameters. Participants may be required to taper a prescribed course of medication in order to maintain eligibility within the study. The Treatment Period consists of three monthly Experimental Sessions and associated Intervening Sessions of integrative behavioral psychotherapy. The Treatment Period lasts approximately 12 weeks. Following the Treatment Period is a Follow-up Period and Study Conclusion. During the Follow-up Period and Study Conclusion, participants complete 4 weeks with no study visits, followed by a Study Conclusion visit.
This study compares the effects of three blinded Experimental Sessions of psychotherapy in combination with flexible doses of MDAI or placebo administered as described below. Non-drug preparatory and intervening psychotherapy sessions are also included. Patient's weight is determined for dosage calculation. Initial dose is 100 mg unless this will result in a dosage of less than 1.5 mg/kg of patient weight. Initial dose thereby adjusted upward in 50 mg increments to deliver the lowest dose possible of at least 1.5 mg/kg of patient weight. Initial dose for Experimental Session 2 and 3 is cumulative dose calculated by adding the initial dose plus REMS protocol dose used the previous Experimental Session for each patient.
Randomization occurs prior to the initiation of Experimental Session 1. Each participant is provided the next randomized number in a sequence by a blinded study monitor. Participants are then randomized, according to a computer-generated randomization schedule, […] to MDAI or placebo. The randomization schedule is prepared and implemented by an independent statistician. Participants, clinicians, and study teams are blinded to treatment allocation. MDAI treatment groups may be subjected to anxiogenic effects due to underdosing of participants. […]

[4] = cited from earlier work
[5] = 6 mg/kg ip, 30 min before test, vs vehicle
[6] = at Study Conclusion, vs placebo-treated controls

In the case of `[2H]C1(N)Cc2cc3c(cc2C1([2H])[2H])OCO3` (racemic) [Compound 3, 6,7,7-Trideuterio-5H-cyclopenta[f][1,3]benzodioxol-6-amine hydrochloride], the half-life at 0.25 μM [1] is reported as 7.42 h, the microsomal CLint at 0.25 μM [1] is reported as 3.12 µL/min/mg and the “in vitro clearance compared with MDAI HCl salt (reference compound)” value [1] is reported as “significantly lower”.
In the case of `[2H]C1([2H])Oc2cc3c(cc2O1)C([2H])([2H])C([2H])(N)C3` (racemic) [Compound 4, 2,2,6,7,7-Pentadeuterio-5H-cyclopenta[f][1,3]benzodioxol-6-amine hydrochloride], the half-life at 0.25 μM [1] is reported as 7.97 h, the microsomal CLint at 0.25 μM [1] is reported as 2.9 µL/min/mg and the “in vitro clearance compared with MDAI HCl salt (reference compound)” value [1] is reported as “significantly lower”.
For `CNC1=Nc2ccc(Cl)cc2C(c2ccccc2)=[N+]([O-])C1` [CDP, Chlordiazepoxide], the “frequency of HDIPS” value (Male Sprague-Dawley rats; [5]) was “trend towards increased”, the “percentage of time in the open arms (% TO)” value (“percentage of time … (% TO)” below) (Male Sprague-Dawley rats; [5]) was “significant increase” and the total line crossings (Male Sprague-Dawley rats; [5]) was “trend towards increased”. The “total open arm entries” value (Male Sprague-Dawley rats; [5]) was “trend towards increased”.
In the case of `[2H]C1([2H])Oc2cc3c(cc2O1)CC(N)C3` [Compound 1, 2,2-Dideuterio-6,7-dihydro-5H-cyclopenta[f][1,3]benzodioxol-6-amine Hydrochloride], the “half-life and intrinsic clearance compared to MDAI HCl (reference compound)” value [1] is reported as “exhibit differences”, the half-life at 0.25 μM [1] is reported as 3.27 h and the microsomal CLint at 0.25 μM [1] is reported as 7.09 µL/min/mg.
In the case of `[2H]C1([2H])Oc2cc3c(cc2O1)C([2H])([2H])C([2H])(N)C3([2H])[2H]` [Compound 2, 2,2,5,5,6,7,7-Heptadeuteriocyclopenta[f][1,3]benzodioxol-6-amine Hydrochloride], the “half-life and intrinsic clearance compared to MDAI HCl (reference compound)” value [1] is reported as “exhibit differences”, the half-life at 0.25 μM [1] is reported as 3.83 h and the microsomal CLint at 0.25 μM [1] is reported as 6.04 µL/min/mg.
`[2H]C1([2H])c2cc3c(cc2C([2H])([2H])C1([2H])N)OCO3` [Compound 5, 5,5,6,7,7-Pentadeuteriocyclopenta[f][1,3]benzodioxol-6-amine hydrochloride] gave a half-life at 0.25 μM [1] of 3.42 h and a microsomal CLint at 0.25 μM [1] of 6.78 µL/min/mg.
In the case of `NC1Cc2cc3c(cc2C1)OCO3` [MDAI, 5,6-Methylenedioxy-2-aminoindane], the “toxicity reported associated with MDAI intoxication” value [2] is listed as “serotonin syndrome”, the half-life at 0.25 μM [1] is listed as 3.42 h and the microsomal CLint at 0.25 μM [1] is listed as 6.78 µL/min/mg. For the same compound, the “percentage of time … (% TO)” value (Male Sprague-Dawley rats; 0.625 mg/kg ip, 30 min before test, vs vehicle or any other dose (FIG. 1)) was “numerical increase”, the “percentage of time … (% TO)” value (Male Sprague-Dawley rats; doses too low or too high (0.15, 0.31, 1.25, 2.5 mg/kg ip)) was “opposite effect” and the “total open arm entries” value (Male Sprague-Dawley rats; higher and lower doses (0.15, 0.31, 1.25, 2.5 mg/kg ip), FIG. 2) was “trended towards an anxiogenic effect”. For the same compound, the “total open arm entries” value (Male Sprague-Dawley rats; middle dose (0.625 mg/kg ip), FIG. 2) was “increase vs placebo that trended towards significance”, the “CAPS-5 assessments compared to placebo-treated controls” value ([3]; Intervening Session 1C, 2C, 3C and Study Conclusion) was “Significant improvements” and the “CAPS-5 assessment compared to the placebo group” value ([3]; PTSD participants, at Study Conclusion) was “significant mean reduction”. The “lessening daytime sleepiness as measured by ESS” value ([3]; at Study Conclusion) was “significant improvement”, the adverse anxiogenic incidents [3, 6] was “without a significant increase” and the “clinician-rated functional impairment score as measured by SDS” value [3, 6] was “significant improvement”. For the same compound, the “depression as measured by HAM-D” value [3, 6] was “significant improvement”, the “Oral MDAI dose, drug activity level Threshold” value [4] was 40 mg and the “Oral MDAI dose, drug activity level Very Strong” value [4] was no less than 300 mg.
`COc1ccc2c(c1)[C@]13CCCC[C@@H]1[C@H](C2)N(C)CC3` [dextromethorphan] gave a half-life at 0.25 μM [1] of 0.433 h and a microsomal CLint at 0.25 μM [1] of 53.5 µL/min/mg.
